Assay results taken from patent US11753395B2 (Kinnate Biopharma Inc., priority 2021, dated 2023).

Experiments:
Ba/F3-TPR-MET cells = target: T1, Ba/F3-TPR-MET cells (Homo sapiens, UniProt P08581); test: CellTiter-Glo Cell Viability Assay, Ba/F3-TPR-MET; type: cell-based; conditions: 72 hours
T1 construct: fused on or other part: P12270 (Nucleoprotein TPR)
Protocol: (§1) Ba/F3-TPR-MET and Ba/F3-TPR-MET-D1228N cells were seeded at 3000 cells per well in a 96 well plate in 90 μL growth media and allowed to incubate overnight at 37° C. with 5% CO2. The following day, compounds were serially diluted from a 10 mM top dose for a 9-point 3-fold dilution curve in DMSO. Following a 100-fold dilution in growth media, a further 10-fold dilution was made into the cell plate for a final volume of 100 μL and 0.1% DMSO. Compounds and cells were incubated together for 72 hours at 37° C. with 5% CO2. The CellTiter-Glo® 2.0 Assay determines the number of viable cells in culture by quantifying ATP, which indicates the presence of metabolically active cells. Luminescence readout is directly proportional to the number of viable cells in culture. CellTiter-Glo reagent (Promega, G9243) and cell plates were allowed to equilibrate to room temperature for at least 15 min, then 100 μL of CellTiter-Glo was added to each well for a 1:1 ratio of reagent to media. Samples were placed on a shaker for 2 min prior to a 30 min incubation at room temperature protected from light. Luminescence was read on a Perkin Elmer Envision plate reader 2105 and used to calculate ICso values within the Dotmatics Knowledge Solutions Studies curve fitting environment (Dotmatics, Bishops Stortford, UK, CM23) and are presented in Table 2.

MET D1228N = target: T2, MET D1228N (Homo sapiens, UniProt P08581, D1228N); test: MET D1228N Mobility Shift Assay; conditions: biochemical assay IC50; 100 μM ATP, 60 minute kinase reaction
T2 construct: purchased Signalchem M52-12IG
Protocol: (§2) Small molecule inhibition of MET D1228N kinase activity was evaluated using a fluorescence -based microfluidic mobility shift assay. MET D1228N catalyzes the production of ADP from ATP during phosphoryl transfer to the substrate peptide, FLPeptide30 (5-FAM-KKKKEEIYFFF -CONH2) (Perkin Elmer, 760430). MET D1228N enzyme (Signalchem, M52-12IG) at 0.313 nM was prepared with 10 mM MgCl2 and 1.5 μM substrate peptide in a buffer containing 50 mM HEPES, 1 mM EGTA, 0.01% Brij-35, 0.05% BSA, and 2 mM DTT and pre-incubated at room temperature for 30 min prior to the start of the reaction. 100 μM ATP was added to start the reaction. The mobility shift assay electrophoretically separates the fluorescently labeled peptides (substrate and phosphorylated product) following the 60 minute kinase reaction. The reaction was terminated by addition of 0.5 M EDTA. Both substrate and product were measured and the ratio of these values used to generate % conversion of substrate to product by the LabChip EZ reader (Perkin Elmer). ICso values were calculated using the inhibition of conversion ratio using Dotmatics Knowledge Solutions Studies curve fitting environment (Dotmatics, Bishops Stortford, UK, CM23) and are presented in Table 2.

MET = target: T3, MET (Homo sapiens, UniProt P08581); test: MET Mobility Shift Assay; conditions: biochemical assay IC50; 100 μM ATP, 60 minute kinase reaction
T3 construct: purchased Carna Biosciences 08-151
Protocol: as §2, with “MET” for “MET D1228N”, “a fluorescence-based” for “a fluorescence -based”, “FLPeptide30 (5-FAM-KKKKEEIYFFF-CONH2)” for “FLPeptide30 (5-FAM-KKKKEEIYFFF -CONH2)”, “MET enzme (Carna Biosciences, 08-151)” for “MET D1228N enzyme (Signalchem, M52-12IG)”, “at 0.625” for “at 0.313”

[1] = target: T4, Ba/F3-TPR-MET-D1228N cells (Homo sapiens, UniProt P08581, D1228N, cells depend on it); test: CellTiter-Glo Cell Viability Assay, Ba/F3-TPR-MET-D1228N; type: cell-based; conditions: 72 hours
T4 construct: fused on or other part: P12270 (Nucleoprotein TPR)
Protocol: as §1

T2 sequence (P08581 25-1390 D1228N): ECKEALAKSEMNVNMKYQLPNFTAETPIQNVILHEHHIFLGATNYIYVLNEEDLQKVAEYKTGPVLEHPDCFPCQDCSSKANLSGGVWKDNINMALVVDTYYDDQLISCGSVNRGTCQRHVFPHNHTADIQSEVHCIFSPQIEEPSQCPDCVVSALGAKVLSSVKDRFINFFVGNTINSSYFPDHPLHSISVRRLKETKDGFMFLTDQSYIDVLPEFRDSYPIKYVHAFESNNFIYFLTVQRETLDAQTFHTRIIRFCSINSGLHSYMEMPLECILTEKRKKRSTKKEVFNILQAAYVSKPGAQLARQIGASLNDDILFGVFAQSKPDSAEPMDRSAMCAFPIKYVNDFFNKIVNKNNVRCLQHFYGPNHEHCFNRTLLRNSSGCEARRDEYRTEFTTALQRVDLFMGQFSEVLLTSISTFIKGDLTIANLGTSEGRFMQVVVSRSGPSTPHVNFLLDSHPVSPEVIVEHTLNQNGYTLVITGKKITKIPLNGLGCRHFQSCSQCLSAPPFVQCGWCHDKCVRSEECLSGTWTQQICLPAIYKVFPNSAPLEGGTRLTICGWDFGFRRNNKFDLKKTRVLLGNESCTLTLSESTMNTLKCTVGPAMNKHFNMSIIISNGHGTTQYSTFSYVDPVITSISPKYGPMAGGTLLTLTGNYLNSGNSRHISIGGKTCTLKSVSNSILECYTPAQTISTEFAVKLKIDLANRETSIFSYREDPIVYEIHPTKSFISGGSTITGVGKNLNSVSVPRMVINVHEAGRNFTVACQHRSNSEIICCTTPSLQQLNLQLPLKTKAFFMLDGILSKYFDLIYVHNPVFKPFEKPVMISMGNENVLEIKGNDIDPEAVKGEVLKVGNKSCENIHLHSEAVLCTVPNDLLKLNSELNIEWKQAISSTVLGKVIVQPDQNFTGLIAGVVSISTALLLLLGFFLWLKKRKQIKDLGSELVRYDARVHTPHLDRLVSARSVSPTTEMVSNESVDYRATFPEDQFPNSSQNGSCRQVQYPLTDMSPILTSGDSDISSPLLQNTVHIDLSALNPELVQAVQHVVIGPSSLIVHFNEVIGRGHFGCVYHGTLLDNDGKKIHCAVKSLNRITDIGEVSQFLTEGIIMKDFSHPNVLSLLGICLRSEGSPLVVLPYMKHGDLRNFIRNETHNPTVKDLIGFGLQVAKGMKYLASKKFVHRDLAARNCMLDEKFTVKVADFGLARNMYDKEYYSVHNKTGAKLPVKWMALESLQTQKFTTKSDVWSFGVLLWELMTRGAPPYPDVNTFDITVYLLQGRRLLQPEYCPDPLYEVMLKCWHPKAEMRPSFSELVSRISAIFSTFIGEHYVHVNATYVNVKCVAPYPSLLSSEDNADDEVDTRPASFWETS
T3 sequence (P08581 25-1390): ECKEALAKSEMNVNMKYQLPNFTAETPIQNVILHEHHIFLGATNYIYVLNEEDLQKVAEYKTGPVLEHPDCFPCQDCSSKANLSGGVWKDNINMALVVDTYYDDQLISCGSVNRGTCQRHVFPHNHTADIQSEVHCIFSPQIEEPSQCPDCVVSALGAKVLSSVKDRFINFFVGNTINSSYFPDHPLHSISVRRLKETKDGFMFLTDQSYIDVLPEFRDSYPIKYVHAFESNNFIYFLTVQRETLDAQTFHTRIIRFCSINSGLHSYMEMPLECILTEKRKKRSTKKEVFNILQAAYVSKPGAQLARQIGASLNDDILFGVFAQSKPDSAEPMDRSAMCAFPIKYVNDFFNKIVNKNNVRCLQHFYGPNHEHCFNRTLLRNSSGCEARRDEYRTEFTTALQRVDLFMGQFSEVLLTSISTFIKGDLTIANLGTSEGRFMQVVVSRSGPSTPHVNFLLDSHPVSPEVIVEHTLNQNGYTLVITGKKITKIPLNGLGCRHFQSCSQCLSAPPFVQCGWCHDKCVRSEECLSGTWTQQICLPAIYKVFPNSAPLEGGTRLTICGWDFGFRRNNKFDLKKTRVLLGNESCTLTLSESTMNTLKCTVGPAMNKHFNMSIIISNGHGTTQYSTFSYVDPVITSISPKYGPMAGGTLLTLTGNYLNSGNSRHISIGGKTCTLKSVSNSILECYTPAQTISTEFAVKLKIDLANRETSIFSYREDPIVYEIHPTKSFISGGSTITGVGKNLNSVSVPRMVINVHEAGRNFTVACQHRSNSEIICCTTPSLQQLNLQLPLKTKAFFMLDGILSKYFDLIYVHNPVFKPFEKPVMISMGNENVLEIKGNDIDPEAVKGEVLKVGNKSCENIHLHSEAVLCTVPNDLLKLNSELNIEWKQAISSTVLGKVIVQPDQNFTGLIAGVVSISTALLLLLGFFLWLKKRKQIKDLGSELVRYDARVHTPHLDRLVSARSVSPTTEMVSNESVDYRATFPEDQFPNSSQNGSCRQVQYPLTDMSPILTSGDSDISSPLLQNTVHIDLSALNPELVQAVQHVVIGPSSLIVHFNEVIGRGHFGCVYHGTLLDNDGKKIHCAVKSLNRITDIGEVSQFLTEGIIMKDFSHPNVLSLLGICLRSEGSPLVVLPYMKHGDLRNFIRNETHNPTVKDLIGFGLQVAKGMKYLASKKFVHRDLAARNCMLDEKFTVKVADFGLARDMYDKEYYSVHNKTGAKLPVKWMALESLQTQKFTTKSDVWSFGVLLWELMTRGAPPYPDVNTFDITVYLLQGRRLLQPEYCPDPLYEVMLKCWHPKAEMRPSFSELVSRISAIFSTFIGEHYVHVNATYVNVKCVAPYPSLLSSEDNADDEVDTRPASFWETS
T4 sequence (P08581 whole entry D1228N, the tested form may be a part): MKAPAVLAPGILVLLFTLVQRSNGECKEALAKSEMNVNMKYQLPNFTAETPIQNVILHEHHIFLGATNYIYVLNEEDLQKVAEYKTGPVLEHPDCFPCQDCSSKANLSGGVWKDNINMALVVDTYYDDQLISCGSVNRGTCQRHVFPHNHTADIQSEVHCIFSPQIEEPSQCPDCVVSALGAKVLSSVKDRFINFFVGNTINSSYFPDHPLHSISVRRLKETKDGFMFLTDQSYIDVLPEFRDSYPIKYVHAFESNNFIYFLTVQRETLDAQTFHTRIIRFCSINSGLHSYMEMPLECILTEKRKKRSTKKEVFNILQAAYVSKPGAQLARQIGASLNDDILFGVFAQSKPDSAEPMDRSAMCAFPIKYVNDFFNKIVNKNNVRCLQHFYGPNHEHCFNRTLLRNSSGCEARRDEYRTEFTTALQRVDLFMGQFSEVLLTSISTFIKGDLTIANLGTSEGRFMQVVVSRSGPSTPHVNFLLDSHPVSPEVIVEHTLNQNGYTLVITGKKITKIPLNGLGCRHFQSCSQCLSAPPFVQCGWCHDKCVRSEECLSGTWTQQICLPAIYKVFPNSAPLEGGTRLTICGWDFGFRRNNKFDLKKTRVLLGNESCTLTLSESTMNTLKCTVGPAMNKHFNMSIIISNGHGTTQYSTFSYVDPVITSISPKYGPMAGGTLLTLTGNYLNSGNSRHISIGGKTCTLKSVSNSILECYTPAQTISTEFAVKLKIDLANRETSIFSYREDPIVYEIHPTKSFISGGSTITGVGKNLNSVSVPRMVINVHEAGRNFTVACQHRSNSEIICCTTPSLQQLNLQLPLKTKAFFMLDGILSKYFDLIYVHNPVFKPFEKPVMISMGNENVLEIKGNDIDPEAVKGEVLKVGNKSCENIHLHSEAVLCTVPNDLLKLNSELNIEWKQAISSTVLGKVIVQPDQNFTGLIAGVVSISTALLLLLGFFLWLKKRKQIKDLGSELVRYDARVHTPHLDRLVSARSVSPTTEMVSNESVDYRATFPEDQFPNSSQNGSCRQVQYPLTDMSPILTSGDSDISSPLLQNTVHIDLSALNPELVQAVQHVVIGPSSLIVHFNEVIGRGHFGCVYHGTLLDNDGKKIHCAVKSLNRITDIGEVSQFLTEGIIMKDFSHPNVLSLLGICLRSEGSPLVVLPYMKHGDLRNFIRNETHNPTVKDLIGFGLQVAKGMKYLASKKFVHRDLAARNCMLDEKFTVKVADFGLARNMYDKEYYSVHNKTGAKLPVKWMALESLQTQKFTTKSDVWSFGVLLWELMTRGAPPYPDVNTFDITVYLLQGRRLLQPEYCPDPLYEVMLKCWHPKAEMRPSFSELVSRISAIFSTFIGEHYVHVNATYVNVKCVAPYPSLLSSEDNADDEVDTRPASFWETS

Structure (SMILES) | EC50 (Ba/F3-TPR-MET cells) [nM] | IC50 (MET D1228N) [nM] | IC50 (MET) [nM] | EC50 [1] [nM]
COc1ccncc1C(=O)Nc1cc(F)c(Oc2ccnc3cc(OCC(C)(C)O)ccc23)c(F)c1 [Example 40, N-(3,5-difluoro-4-{[7-(2-hydroxy-2-methylpropoxy)quinolin-4-yl]oxy}phenyl)-4-methoxypyridine-3-carboxamide] | 100 to 1000 | ≤ 100 | ≤ 100 | 100 to 1000
COc1ccncc1C(=O)Nc1cc(F)c(Oc2ccnc3cc(OCCO)ccc23)c(F)c1 [Example 41, N-(3,5-difluoro-4-((7-(2-hydroxyethoxy)quinolin-4-yl)oxy)phenyl)-4-methoxypyridine-3-carboxamide] | 100 to 1000 | ≤ 100 | ≤ 100 | ≤ 100
COCCOc1ccc2c(Oc3c(F)cc(NC(=O)c4cnccc4OC)cc3F)ccnc2c1 [Example 42, N-(3,5-difluoro-4-{[7-(2-methoxyethoxy)quinolin-4-yl]oxy}phenyl)-4-methoxypyridine-3-carboxamide] | 100 to 1000 | ≤ 100 | ≤ 100 | ≤ 100
COCCOc1cc2nccc(Oc3c(F)cc(NC(=O)c4cnccc4OC)cc3F)c2cc1OCCOC [Example 43, N-(4-((6,7-bis(2-methoxyethoxy)quinolin-4-yl)oxy)-3,5-difluorophenyl)-4-methoxypyridine-3-carboxamide] | ≤ 100 | ≤ 100 | ≤ 100 | ≤ 100
CNCCOc1cc2nccc(Oc3c(F)cc(NC(=O)c4cnc(F)cc4OC)cc3F)c2cc1OC [Example 44, N-(3,5-difluoro-4-((6-methoxy-7-(2-(methylamino)ethoxy)quinolin-4-yl)oxy)phenyl)-6-fluoro-4-methoxypyridine-3-carboxamide] | 100 to 1000 | ≤ 100 | ≤ 100 | 100 to 1000
CNCCOc1cc2nccc(Oc3c(F)cc(NC(=O)c4cnc(C)cc4OC)cc3F)c2cc1OC [Example 45, N-(3,5-difluoro-4-((6-methoxy-7-(2-(methylamino)ethoxy)quinolin-4-yl)oxy)phenyl)-4-methoxy-6-methylpyridine-3-carboxamide] | 100 to 1000 | ≤ 100 | ≤ 100 | 100 to 1000
CNCCOc1cc2nccc(Oc3c(F)cc(NC(=O)c4cnc(NCCOC)cc4OC)cc3F)c2cc1OC [Example 46, N-(3,5-difluoro-4-((6-methoxy-7-(2-(methylamino)ethoxy)quinolin-4-yl)oxy)phenyl)-4-methoxy-6-((2-methoxyethyl)amino)pyridine-3-carboxamide] | ≤ 100 | ≤ 100 | ≤ 100 | ≤ 100
CNCCOc1cc2nccc(Oc3c(F)cc(NC(=O)c4cnccc4OC(F)F)cc3F)c2cc1OC [Example 47, N-(3,5-difluoro-4-((6-methoxy-7-(2-(methylamino)ethoxy)quinolin-4-yl)oxy)phenyl)-4-(difluoromethoxy)pyridine-3-carboxamide] | 100 to 1000 | ≤ 100 | ≤ 100 | 100 to 1000
CCc1ccncc1C(=O)Nc1cc(F)c(Oc2ccnc3cc(OCCNC)c(OC)cc23)c(F)c1 [Example 49, N-(3,5-difluoro-4-((6-methoxy-7-(2-(methylamino)ethoxy)quinolin-4-yl)oxy)phenyl)-4-ethylpyridine-3-carboxamide] | 100 to 1000 | ≤ 100 | ≤ 100 | 100 to 1000
CNCCOc1cc2nccc(Oc3c(F)cc(NC(=O)c4cnccc4OC)c(F)c3F)c2cc1OC [Example 50, 4-methoxy-N-(2,3,5-trifluoro-4-((6-methoxy-7-(2-(methylamino)ethoxy)quinolin-4-yl)oxy)phenyl)pyridine-3-carboxamide] | ≤ 100 | ≤ 100 | ≤ 100 | ≤ 100
CCOc1ccncc1C(=O)Nc1cc(F)c(Oc2ccnc3cc(OCCNC)c(OC)cc23)c(F)c1F [Example 51, 4-ethoxy-N-[2,3,5-trifluoro-4-({6-methoxy-7-[2-(methylamino)ethoxy]quinolin-4-yl}oxy)phenyl]pyridine-3-carboxamide] | 100 to 1000 | ≤ 100 | ≤ 100 | ≤ 100
CCCOc1ccncc1C(=O)Nc1cc(F)c(Oc2ccnc3cc(OCCNC)c(OC)cc23)cc1F [Example 52, N-(2,5-difluoro-4-((6-methoxy-7-(2-(methylamino)ethoxy)quinolin-4-yl)oxy)phenyl)-4-propoxypyridine-3-carboxamide] | 100 to 1000 | ≤ 100 | ≤ 100 | 100 to 1000
COc1cc2c(Oc3c(F)cc(NC(=O)c4cnccc4OC4CC4)cc3F)ccnc2cc1OCCCN1CCOCC1 [Example 53, 4-cyclopropoxy-N-[3,5-difluoro-4-({6-methoxy-7-[3-(morpholin-4-yl)propoxy]quinolin-4-yl}oxy)phenyl]pyridine-3-carboxamide] | ≤ 100 | ≤ 100 | ≤ 100 | ≤ 100
CNCCOc1cc2nccc(Oc3c(F)cc(NC(=O)c4cnccc4OC4CC4)cc3F)c2cc1OC [Example 54, 4-cyclopropoxy-N-[3,5-difluoro-4-({6-methoxy-7-[2-(methylamino)ethoxy]quinolin-4-yl}oxy)phenyl]pyridine-3-carboxamide] | ≤ 100 | ≤ 100 | ≤ 100 | ≤ 100
CNCCOc1cc2nccc(Oc3c(F)cc(NC(=O)c4cnccc4OC4CCC4)cc3F)c2cc1OC [Example 55, 4-cyclobutoxy-N-(3,5-difluoro-4-((6-methoxy-7-(2-(methylamino)ethoxy)quinolin-4-yl)oxy)phenyl)pyridine-3-carboxamide] | 100 to 1000 | ≤ 100 | ≤ 100 | ≤ 100
CCCOc1ccncc1C(=O)Nc1cc(F)c(Oc2ccnc3cc(OCCNC)c(OC)cc23)c(F)c1 [Example 56, N-[3,5-difluoro-4-({6-methoxy-7-[2-(methylamino)ethoxy]quinolin-4-yl}oxy)phenyl]-4-propoxypyridine-3-carboxamide] | ≤ 100 | ≤ 100 | ≤ 100 | ≤ 100
CNCCOc1cc2nccc(Oc3c(F)cc(NC(=O)c4cnccc4OC4CC(F)(F)C4)cc3F)c2cc1OC [Example 57, N-[3,5-difluoro-4-({6-methoxy-7-[2-(methylamino)ethoxy]quinolin-4-yl}oxy)phenyl]-4-(3,3-difluorocyclobutoxy)pyridine-3-carboxamide] | 100 to 1000 | ≤ 100 | ≤ 100 | 100 to 1000
CNCCOc1cc2nccc(Oc3c(F)cc(NC(=O)c4cnccc4OCCCF)cc3F)c2cc1OC [Example 58, N-[3,5-difluoro-4-({6-methoxy-7-[2-(methylamino)ethoxy]quinolin-4-yl}oxy)phenyl]-4-(3-fluoropropoxy)pyridine-3-carboxamide] | ≤ 100 | ≤ 100 | ≤ 100 | ≤ 100
CNCCOc1cc2nccc(Oc3c(F)cc(NC(=O)c4cnccc4OC(C)C)cc3F)c2cc1OC [Example 59, N-[3,5-difluoro-4-({6-methoxy-7-[2-(methylamino)ethoxy]quinolin-4-yl}oxy)phenyl]-4-isopropoxypyridine-3-carboxamide] | ≤ 100 | ≤ 100 | ≤ 100 | ≤ 100
